In patent publication US20080125432A1 (Devgen NV, priority 2004, published 2008) one finds IC50 and remaining activity data, which are given here for 30 compounds.

Where two headings read alike, the source gives them in different places.

This test concerns the target T1, human Kv4.3/KChIP2.2 potassium channel (Homo sapiens, UniProt Q9UK17).
T1 construct: expressed in transfected cells
T1 sequence (Q9UK17 1-655): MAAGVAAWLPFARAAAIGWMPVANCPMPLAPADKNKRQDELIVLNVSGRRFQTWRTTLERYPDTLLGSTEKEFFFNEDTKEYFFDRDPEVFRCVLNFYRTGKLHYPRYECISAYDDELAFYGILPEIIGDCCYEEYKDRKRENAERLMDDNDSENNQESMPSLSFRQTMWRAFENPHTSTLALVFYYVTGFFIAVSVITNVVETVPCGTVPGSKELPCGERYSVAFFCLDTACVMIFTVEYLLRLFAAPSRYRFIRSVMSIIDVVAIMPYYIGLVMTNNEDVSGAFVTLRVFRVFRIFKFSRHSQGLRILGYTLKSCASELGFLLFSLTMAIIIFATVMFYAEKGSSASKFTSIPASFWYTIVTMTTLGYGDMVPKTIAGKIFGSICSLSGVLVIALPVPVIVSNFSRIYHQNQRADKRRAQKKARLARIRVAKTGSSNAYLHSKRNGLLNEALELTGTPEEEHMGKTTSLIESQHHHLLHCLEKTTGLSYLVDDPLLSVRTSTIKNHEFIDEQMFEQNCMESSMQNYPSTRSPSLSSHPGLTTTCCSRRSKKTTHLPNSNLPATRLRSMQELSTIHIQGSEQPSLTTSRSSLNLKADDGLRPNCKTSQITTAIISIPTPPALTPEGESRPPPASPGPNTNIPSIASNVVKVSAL
In words: Whole cell patch clamp, CHO-K1 cells stably expressing human Kv4.3/KChIP2.2. The test is classed as cell-based. Particulars: for remaining activity at 1 µM: CHO-K1. (In general: Patch clamp records ionic current or voltage across a cell membrane.)

Setting [1] is: Kv4.3 mediated current, charge, patch clamp, read-out: Kv4.3 charge IC50.
Where [2] appears, read: estimated by Hill fit with hill=1, ymax=100, tested at 2 μM, n=2, read-out: IC50 (μM) Kv4.3.
Where [3] appears, read: remaining current measured after application of the compound and relative to the blank, read-out: Kv4.3 charge in %.
[4] abbreviates: remaining peak height measured after application of the compound and relative to the blank, read-out: Kv4.3 peak in %.

Usually IC50 stands for the point on the concentration scale where inhibition reaches its midpoint. As to `Cc1nc(Nc2ccc(Cl)cc2)sc1C(=O)N[C@H](C)c1ccc2ccccc2c1` [Compound 52, 2-(4-chloro-phenylamino)-4-methyl-thiazole-5-carboxylic acid (R)-1-(2-naphtalen-2-yl-ethyl)-amide], the IC50 is, setting by setting: under setting [1], 0.34 µM; under setting [2], 0.34 µM.

As for `Cc1nc(Sc2ccccc2)sc1C(=O)N[C@H]1CCC[C@@H]1OCc1ccccc1` [Compound 81, 4-methyl-2-phenylsulfanyl-thiazole-5-carboxylic acid ((1S,2S)-2-benzyloxycyclopent-1-yl) amide], the remaining activity at 1 µM stood at 51% under setting [3] and 90% under setting [4]. Take `Cc1nc(Nc2ccc(Br)cc2)sc1C(=O)N[C@@H](C)c1ccc2ccccc2c1` [Compound 18, 2-(4-bromo-phenylamino)-4-methyl-thiazole-5-carboxylic acid (S)-1-(naphthalen-2-yl)ethyl amide]: the IC50 under setting [2] is 3.85 µM.

With `COc1cccc([C@@H](C)NC(=O)c2sc(Nc3cc(Cl)ccc3OC)nc2C)c1` [Compound 34], under setting [2], the IC50 is 1.62 µM. Same read-out and setting: as for `COc1ccc(OC)c(Nc2nc(C)c(C(=O)N[C@@H]3CCC[C@H]3OCc3ccccc3)s2)c1` [Compound 33, 2-(2,5-dimethoxyphenylamino)-4-methylthiazole-5-carboxylic acid (1R,2R)-2-(benzyloxycyclopent-1-yl) amide], the figure is 3.35 µM. For the compound `Cc1nc(Nc2ccc(Cl)cc2)sc1C(=O)N[C@@H]1CCC[C@H]1OCc1ccccc1` [Compound 30, 2-(4-chloro-phenylamino)-4-methyl-thiazole-5-carboxylic acid (1R,2R)-2-(benzyloxycyclopent-1-yl) amide], the IC50 by setting is: under setting [1], 1.25 µM; under setting [2], 1.25 µM. Turning to `COc1ccccc1Nc1nc(C)c(C(=O)N[C@@H]2CCC[C@H]2OCc2ccccc2)s1` [Compound 31, 2-(2-methoxy-phenylamino)-4-methyl-thiazole-5-carboxylic acid (1R,2R)-2-(benzyloxycyclopent-1-yl) amide], the IC50 under setting [2] is 2.91 µM. On to `Cc1nc(NC(=O)c2ccc(C(C)(C)C)cc2)sc1C(=O)N[C@H]1CCC[C@@H]1OCc1ccccc1` [Compound 180, 2-(4-tert-butyl-benzoylamino)-4-methyl-thiazole-5-carboxylic acid ((1S,2S)-2-benzyloxycyclopent-1-yl) amide], for which the remaining activity at 1 µM runs as follows: under setting [3], 73%; under setting [4], 97%. The matching figures for `Cc1nc(Nc2ccc3c(c2)OCCO3)sc1C(=O)N[C@H]1CCC[C@@H]1OCc1ccccc1` [Compound 95]: 61% and 91%. The corresponding values for `COc1ccccc1Nc1nc(C)c(C(=O)NCc2c(C)cccc2Cl)s1` [Compound 98, 2-(2-methoxy-phenylamino)-4-methyl-thiazole-5-carboxylic acid 2-chloro-6-methyl-benzylamide] are 59% and 90%. The matching figures for `COc1ccccc1Nc1nccc(C(=O)N[C@H]2CCC[C@@H]2OCc2ccccc2)n1` [Compound 76, 2-(2-methoxy-phenylamino)-pyrimidine-4-carboxylic acid ((1S,2S)-2-benzyloxycyclopent-1-yl) amide]: 62% and 99%. Regarding `COc1ccc(CNC(=O)c2sc(Nc3ccc(Br)cc3)nc2C)cc1` [Compound 60, 2-(4-bromo-phenylamino)-4-methyl-thiazole-5-carboxylic acid 4-methoxy-benzylamide], the IC50 under setting [2] is 0.39 µM. Regarding `COc1ccccc1Nc1nc(C)c(C(=O)NCc2ccc(C(C)(C)C)cc2)s1` [Compound 106, 2-(2-methoxy-phenylamino)-4-methyl-thiazole-5-carboxylic acid 4-tert-butyl-benzylamide], the remaining activity at 1 µM stood at 58% under setting [3] and 98% under setting [4].

As to `Cc1nc(Nc2ccc(Br)cc2)sc1C(=O)NCc1ccc(F)c(C(F)(F)F)c1` [Compound 63, 2-(4-bromo-phenylamino)-4-methyl-thiazole-5-carboxylic acid 4-fluoro-3-trifluoromethyl-benzylamide], the IC50 under setting [2] is 0.16 µM. Still for that read-out and setting: as for `Cc1nc(Nc2ccc(Br)cc2)sc1C(=O)N[C@H](C)c1ccc2ccccc2c1` [Compound 19, 2-(4-bromo-phenylamino)-4-methyl-thiazole-5-carboxylic acid (R)-1-(naphthalen-2-yl)ethyl amide], the figure is 2.72 µM. `COc1ccccc1Nc1nc(C)c(C(=O)NCc2ccc(Br)cc2)s1` [Compound 108, 2-(2-methoxy-phenylamino)-4-methyl-thiazole-5-carboxylic acid 4-bromo-benzylamide]: the remaining activity at 1 µM was determined as 59% under setting [3] and 82% under setting [4].

In the case of `Cc1nc(Nc2ccc(Br)cc2)sc1C(=O)NCc1ccc(N(C)C)cc1` [Compound 64, 2-(4-bromo-phenylamino)-4-methyl-thiazole-5-carboxylic acid 4-dimethylamino-benzylamide], the IC50 under setting [2] is 0.83 µM. Regarding `Cc1nc(Nc2ccc(Br)cc2)sc1C(=O)NCc1cccc2ccccc12` [Compound 56, 2-(4-bromo-phenylamino)-4-methyl-thiazole-5-carboxylic acid (naphtalen-1-yl-methyl)-amide], the IC50 under setting [1] is 1.07 µM and the IC50 under setting [2] was 1.07 µM.

`COc1cc(CNC(=O)c2sc(Nc3ccc(Br)cc3)nc2C)cc(OC)c1` [Compound 65, 2-(4-bromo-phenylamino)-4-methyl-thiazole-5-carboxylic acid 3,5-dimethoxy-benzylamide]: under setting [2], the IC50 is 0.18 µM.

On to `Cc1nc(Nc2cccc3cccnc23)sc1C(=O)N[C@H]1CCC[C@@H]1OCc1ccccc1` [Compound 94, 4-methyl-2-(quinolin-8-ylamino)-thiazole-5-carboxylic acid ((1S,2S)-2-benzyloxycyclopent-1-yl) amide], for which the remaining activity at 1 µM under setting [3] amounted to 49% and the remaining activity at 1 µM under setting [4] was determined as 89%. The corresponding values for `COc1ccccc1Nc1nc(C)c(C(=O)NCc2ccc3c(c2)CCO3)s1` [Compound 104, 2-(2-methoxy-phenylamino)-4-methyl-thiazole-5-carboxylic acid (2,3-dihydro-benzofuran-5-ylmethyl)-amide] are 77% and 93%. Take `Cc1nc(Nc2ccc(Cl)cc2)sc1C(=O)N[C@@H](C)c1ccc2ccccc2c1` [Compound 54, 2-(4-chloro-phenylamino)-4-methyl-thiazole-5-carboxylic acid (S)-1-(2-naphtalen-2-yl-ethyl)-amide]: the half-inhibitory concentration (IC50) under setting [1] stood at 2.41 µM and the IC50 under setting [2] was 2.41 µM.

Consider `COc1ccccc1Nc1nc(C)c(C(=O)N[C@@H](C)c2ccc3ccccc3c2)s1` [Compound 55, 2-(2-methoxy-phenylamino)-4-methyl-thiazole-5-carboxylic acid (S)-1-(2-naphtalen-2-yl-ethyl)-amide], for which the IC50 under setting [2] was 2.02 µM. For `COc1ccccc1Nc1nc(C)c(C(=O)NCc2ccc(N(C)C)cc2)s1` [Compound 105, 2-(2-methoxy-phenylamino)-4-methyl-thiazole-5-carboxylic acid 4-dimethylamino-benzylamide], the remaining activity at 1 µM by setting is: under setting [3], 61%; under setting [4], 77%. The matching figures for `Cc1nc(Nc2ccc3occc3c2)sc1C(=O)N[C@H]1CCC[C@@H]1OCc1ccccc1` [Compound 126, 2-(benzofuran-5-ylamino)-4-methyl-thiazole-5-carboxylic acid ((1S,2S)-2-benzyloxycyclopent-1-yl) amide]: 58% and 89%. `Cc1nc(Nc2ccc(F)cc2)sc1C(=O)N[C@H](C)c1ccc2ccccc2c1` [Compound 16, 2-(4-fluoro-phenylamino)-4-methyl-thiazole-5-carboxylic acid (R)-1-(naphthalen-2-yl)ethyl amide]: under setting [2], the IC50 was 1.84 µM. Turning to `COc1ccccc1Nc1nc(C)c(C(=O)NCc2ccccc2SC)s1` [Compound 97], the remaining activity at 1 µM runs as follows: under setting [3], 66%; under setting [4], 96%.

As for “2-(4-bromo-phenylamino)-4-methyl-thiazole-5-carboxylic acid 1,2,3,4-tetrahydroisoquinolinamide [Compound 66]”, the IC50 by setting is: under setting [1], 0.34 µM; under setting [2], 0.34 µM. In the case of `COc1ccccc1Nc1ccc(C(=O)N[C@H]2CCC[C@@H]2OCc2ccccc2)s1` [Compound 75, 2-(2-methoxy-phenylamino)-thiophene-5-carboxylic acid ((1S,2S)-2-benzyloxycyclopent-1-yl) amide], the remaining activity at 1 µM under setting [3] was found to be 41% and the remaining activity at 1 µM under setting [4] worked out at 81%. For the compound `COc1ccccc1Nc1nc(C)c(C(=O)N[C@H]2CCC[C@@H]2OCc2ccccc2)s1` [Compound 68, 2-(2-methoxy-phenylamino)-4-methyl-thiazole-5-carboxylic acid (1S,2S)-2-(benzyloxycyclopent-1-yl) amide], the IC50 under setting [2] was 0.54 µM.
